This is an account of results in paper PMC5598323 (Toxicology Reports, 2015).

Data set [1] has as its target CYP3A4 (Homo sapiens, UniProt P08684). The experiment in a line: CYP3A4 testosterone 6β-hydroxylase assay in human liver microsomes. Format: in vitro ADME. The following applies: for inhibition of CYP3A4 in HLM (in words): even upto 50 μM concentrations. Background: Liver microsomes are a subcellular fraction often used to study metabolism.
The target of data set [2] is CYP2D6 (Homo sapiens, UniProt P10635). Kind of data set: CYP2D6 dextromethorphan O-demethylation assay in human liver microsomes. In kind it is in vitro ADME. The following applies: for inhibition of CYP2D6 in HLM (in words): even upto 50 μM concentrations.
CYP2D6, sequence (P10635 whole entry): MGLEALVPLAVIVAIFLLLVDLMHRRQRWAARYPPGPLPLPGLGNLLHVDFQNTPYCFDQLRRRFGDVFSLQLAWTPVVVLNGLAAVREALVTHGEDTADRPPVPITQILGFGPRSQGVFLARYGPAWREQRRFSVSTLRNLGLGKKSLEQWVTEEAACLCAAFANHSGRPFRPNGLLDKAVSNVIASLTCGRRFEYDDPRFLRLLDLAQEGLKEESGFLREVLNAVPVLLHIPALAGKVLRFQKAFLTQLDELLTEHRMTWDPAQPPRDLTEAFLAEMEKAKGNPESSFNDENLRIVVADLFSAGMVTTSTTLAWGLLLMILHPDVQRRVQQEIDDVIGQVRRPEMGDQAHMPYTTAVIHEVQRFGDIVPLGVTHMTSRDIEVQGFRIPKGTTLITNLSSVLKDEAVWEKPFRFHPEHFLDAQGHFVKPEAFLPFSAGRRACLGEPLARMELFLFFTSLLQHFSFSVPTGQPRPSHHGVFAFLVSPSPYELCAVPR
For data set [3], the system named is CYP1A enzyme. The note with it: rat liver microsomes; cited from earlier work.
The test system of data set [4] is CYP1A enzyme. The following applies: human liver microsomes; cited from earlier work.
The conditions of data set [5]: stated in discussion, no experiment and reference not given, cited from earlier work.
The target of data set [6] is CYP2C9 (Homo sapiens, UniProt P11712). Kind of data set: CYP2C9 diclofenac 4′-hydroxylation assay in human liver microsomes. The note with it: for inhibition of CYP2C9 in HLM (in words): even upto 50 μM concentrations.
CYP2C9, sequence (P11712 whole entry): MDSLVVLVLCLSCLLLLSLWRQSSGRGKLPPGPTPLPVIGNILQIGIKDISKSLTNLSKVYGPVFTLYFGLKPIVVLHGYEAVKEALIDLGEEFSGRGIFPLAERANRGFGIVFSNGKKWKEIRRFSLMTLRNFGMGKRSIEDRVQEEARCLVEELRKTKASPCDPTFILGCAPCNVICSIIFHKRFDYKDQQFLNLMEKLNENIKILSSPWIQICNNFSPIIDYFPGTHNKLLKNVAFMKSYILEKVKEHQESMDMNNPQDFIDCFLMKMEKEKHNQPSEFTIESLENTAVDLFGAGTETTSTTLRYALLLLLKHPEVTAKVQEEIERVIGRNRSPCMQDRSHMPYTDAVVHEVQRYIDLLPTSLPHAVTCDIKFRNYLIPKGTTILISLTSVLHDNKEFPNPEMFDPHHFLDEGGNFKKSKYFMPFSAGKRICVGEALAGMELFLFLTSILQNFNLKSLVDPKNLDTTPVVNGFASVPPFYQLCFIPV
Where [7] appears, read: IC50 values CYP3A4 (in μg/ml, in brackets), HLM, μM bound converted to μg/ml.
Where [8] appears, read: IC50 values CYP3A4, HLM, testosterone 100 μM, tested 1–50 μM.
[9] abbreviates: IC50 values CYP2D6 (in μg/ml, in brackets), HLM, μM bound converted to μg/ml.
Where [10] appears, read: IC50 values CYP2D6, HLM, dextromethorphan 8 μM, tested 1–50 μM.
Where [11] appears, read: IC50 values CYP2C9 (in μg/ml, in brackets), HLM, μM bound converted to μg/ml.
The mark [12] stands for this setting: IC50 values CYP2C9, HLM, diclofenac 50 μM, tested 1–50 μM.

Where two headings read alike, the source gives them in different places.

CYP3A4, sequence (P08684 whole entry): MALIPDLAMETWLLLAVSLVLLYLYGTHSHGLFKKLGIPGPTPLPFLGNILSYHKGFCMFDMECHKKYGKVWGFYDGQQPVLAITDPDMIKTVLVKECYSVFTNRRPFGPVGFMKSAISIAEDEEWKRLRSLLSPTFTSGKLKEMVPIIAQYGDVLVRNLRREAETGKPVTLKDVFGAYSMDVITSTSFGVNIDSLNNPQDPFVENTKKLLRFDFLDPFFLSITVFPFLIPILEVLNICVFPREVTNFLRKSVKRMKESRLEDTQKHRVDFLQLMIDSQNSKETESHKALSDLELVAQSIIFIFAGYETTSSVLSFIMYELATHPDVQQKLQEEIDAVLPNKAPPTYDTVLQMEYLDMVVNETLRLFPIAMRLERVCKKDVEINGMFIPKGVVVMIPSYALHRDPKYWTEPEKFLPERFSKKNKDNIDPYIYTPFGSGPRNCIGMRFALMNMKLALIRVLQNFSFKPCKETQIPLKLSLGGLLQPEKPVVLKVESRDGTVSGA

Broadly, the IC50 is the concentration that inhibits the measured activity by half. Low readings indicate higher potency, high ones lower potency. For `CC1(C)CC[C@]2(C(=O)O)CC[C@]3(C)C(=CC[C@@H]4[C@@]5(C)C[C@@H](O)[C@H](O)[C@@](C)(CO)[C@@H]5CC[C@]43C)[C@@H]2[C@@H]1O` [Arjungenin, arjungenin], the IC50 is above 49.5 µM in data set [1] (setting [7]); above 50 µM in data set [1] (setting [8]); above 49.5 µM in data set [2] (setting [9]); above 50 µM in data set [2] (setting [10]); above 49.5 µM in data set [6] (setting [11]); above 50 µM in data set [6] (setting [12]). In data set [1], the “inhibition of CYP3A4 in HLM (in words)” value is “no significant inhibition”. Moreover, in data set [2], the “inhibition of CYP2D6 in HLM (in words)” value is recorded as “no significant inhibition”. Moreover, the “inhibition of CYP1A enzyme (in words)” value in data set [3] and in data set [4] was “did not show inhibition” each time. Moreover, the solubility in hexane result in data set [5] (hexane) is recorded as “insoluble”. The solubility in methanol result in data set [5] is listed as “freely soluble”. Also, the “inhibition of CYP2C9 in HLM (in words)” value in data set [6] is on record as “no significant inhibition”.

Consider `CC1(C)CC[C@]2(C(=O)O)CC[C@]3(C)C(=CC[C@@H]4[C@@]5(C)C[C@@H](O)[C@H](O)C(C)(C)[C@@H]5CC[C@]43C)[C@@H]2[C@@H]1O` [Arjunic acid], for which the IC50 in data set [1] (setting [7]) was above 51.2 µM; in data set [1] (setting [8]), above 50 µM; in data set [2] (setting [9]), above 51.2 µM; in data set [2] (setting [10]) it was above 50 µM; in data set [6] (setting [11]), above 51.2 µM; in data set [6] (setting [12]), above 50 µM. In data set [1], the “inhibition of CYP3A4 in HLM (in words)” value is “no significant inhibition”. In addition, the “inhibition of CYP2D6 in HLM (in words)” value in data set [2] is recorded as “no significant inhibition”. Besides, the “inhibition of CYP1A enzyme (in words)” value in data set [3] and in data set [4] was “did not show inhibition” in each case. For the same compound, in data set [5], the solubility in methanol entry was “freely soluble”. Further, the solubility in water result in data set [5] (water) is on record as “insoluble”. The “inhibition of CYP2C9 in HLM (in words)” value in data set [6] is “no significant inhibition”.
